14 compounds from PubChem BioAssay (NCI) can be followed below.

Test systems include HCT-116 colon; LOX IMVI melanoma; M14 melanoma; MCF7 breast; NCI-H23 lung; NCI-H522 lung; OVCAR-3 ovarian; SF-295 CNS; SR leukemia; SW-620 colon; UACC-257 melanoma.
Holding throughout (assay): NCI tumour cell line growth inhibition, 48 h

SMILES strings stand for the structures.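 Assay format: 96-well plates, 48-hour exposure. TGI is the concentration that stops growth completely.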 Where a SMILES comes first, the peptide text is derived from it. The star is where a group is joined. Boc = CC(C)(C)OC(=O)*; Bn = c1ccc(C*)cc1 A value given as a limit tells only on which side of the number the result lay.

`COC(=O)C(CC(C)C)NC(=O)C(C)NC(=O)C(Cc1ccc(OCc2ccccc2)cc1)NC(=O)C(COCc1ccccc1)NC(=O)OC(C)(C)C` (centres undefined) (Boc-S(Bn)Y(Bn)AL-OMe; configuration not given here): the TGI in the assay with HCT-116 colon, in the assay with LOX IMVI melanoma, with M14 melanoma, in the assay on MCF7 breast, in the assay on NCI-H23 lung and in the assay on NCI-H522 lung was above 100 µM each time. Moreover, the TGI in the assay on OVCAR-3 ovarian, in the assay on SF-295 CNS, in the assay on SR leukemia and in the assay on SW-620 colon was above 100 µM in each case.

Take `COC(=O)c1c(O)ccc2c1c1c(n2Cc2cc(OC)cc(OC)c2)C(=O)c2ccccc2C1`: the TGI in the assay with HCT-116 colon, in the assay with LOX IMVI melanoma, in the assay with M14 melanoma, in the assay with MCF7 breast, in the assay with NCI-H23 lung and in the assay on OVCAR-3 ovarian was above 100 µM in each case. Moreover, the TGI with SF-295 CNS, in the assay with SR leukemia, in the assay on SW-620 colon and in the assay on UACC-257 melanoma was above 100 µM throughout.

In the case of `CCO/C(O)=C(/C(=N)N1CCOCC1)C(=O)Nc1ccc(F)cc1`, the TGI in the assay on HCT-116 colon, in the assay with LOX IMVI melanoma, with M14 melanoma, in the assay on MCF7 breast, in the assay with NCI-H23 lung and in the assay on NCI-H522 lung was above 100 µM in each case. For the same compound, the TGI with OVCAR-3 ovarian, with SF-295 CNS, in the assay with SW-620 colon and in the assay with UACC-257 melanoma was above 100 µM in each case.

With `CCOC(=O)Nc1[nH]cc(-c2ccccc2)c1C#N`, the TGI with HCT-116 colon, in the assay on LOX IMVI melanoma, with M14 melanoma, in the assay with MCF7 breast, in the assay with NCI-H23 lung and in the assay with NCI-H522 lung was above 100 µM each time. Also, the TGI in the assay with OVCAR-3 ovarian, in the assay with SF-295 CNS, in the assay with SR leukemia and with SW-620 colon was above 100 µM in each case.

Take `CC(=O)Nc1ccc(N=Nc2c(O)c(S(=O)(=O)O)cc3cc(S(=O)(=O)O)ccc23)cc1`: the TGI with HCT-116 colon, in the assay on M14 melanoma, with NCI-H23 lung, in the assay on NCI-H522 lung, with OVCAR-3 ovarian and with SF-295 CNS was above 100 µM throughout. For the same compound, the TGI in the assay on SW-620 colon and in the assay with UACC-257 melanoma was above 100 µM in each case.

Take `COc1cc(C2C3C=CC=C4CC=CC(=C43)C3CCC(=O)N32)cc(OC)c1OC` (centres undefined): the TGI in the assay on HCT-116 colon, in the assay with LOX IMVI melanoma, in the assay on M14 melanoma, in the assay on MCF7 breast, in the assay with NCI-H522 lung and in the assay with OVCAR-3 ovarian was above 100 µM throughout. In addition, the TGI with SF-295 CNS, in the assay with SR leukemia, with SW-620 colon and with UACC-257 melanoma was above 100 µM in each case.

Consider `C=CCCON(C(=O)OC(C)(C)C)C(C)(C)C`, for which the TGI in the assay on HCT-116 colon, with LOX IMVI melanoma, in the assay with M14 melanoma, in the assay on NCI-H23 lung, in the assay on NCI-H522 lung and with OVCAR-3 ovarian was above 100 µM in each case. For the same compound, the TGI in the assay with SF-295 CNS, in the assay on SW-620 colon and with UACC-257 melanoma was above 100 µM throughout.

Take `CC1(C)OC(C(=O)Nc2cc3c4ccccc4ccc3c3ccccc23)C(C(=O)N2CCCCC2)O1` (centres undefined): the TGI was above 100 µM with HCT-116 colon; 25.3 µM in the assay with LOX IMVI melanoma; above 100 µM with M14 melanoma; above 29.7 µM with MCF7 breast; above 100 µM in the assay on NCI-H23 lung; above 28.3 µM with NCI-H522 lung. For the same compound, the TGI in the assay with OVCAR-3 ovarian, with SF-295 CNS, in the assay on SW-620 colon and with UACC-257 melanoma was above 100 µM throughout.

For `O=C1COc2cccnc2N1CCCCO`, the TGI in the assay on HCT-116 colon, in the assay with LOX IMVI melanoma, in the assay on MCF7 breast, with NCI-H522 lung, with OVCAR-3 ovarian and with SF-295 CNS was above 100 µM in each case. In addition, the TGI with SR leukemia, with SW-620 colon and with UACC-257 melanoma was above 100 µM throughout.

For the compound `CC(=O)Nc1sc(Br)cc1S(=O)(=O)c1ccc(Cl)cc1`, the TGI with HCT-116 colon is above 100 µM; in the assay with M14 melanoma, 38 µM; in the assay on MCF7 breast, 47.3 µM; with NCI-H23 lung, above 100 µM; in the assay with NCI-H522 lung, 47.6 µM; with OVCAR-3 ovarian, 47.2 µM. Further, the TGI is above 100 µM in the assay on SF-295 CNS, 50.5 µM in the assay on SR leukemia, above 100 µM with SW-620 colon and above 100 µM in the assay with UACC-257 melanoma.

Turning to `N#C[C@H](c1ccccn1)c1nc2ccccc2nc1Cl`, the TGI with HCT-116 colon, in the assay with M14 melanoma, in the assay with MCF7 breast, with NCI-H23 lung, in the assay on NCI-H522 lung and in the assay with OVCAR-3 ovarian was above 100 µM each time. Further, the TGI with SF-295 CNS, in the assay with SR leukemia, with SW-620 colon and in the assay with UACC-257 melanoma was above 100 µM throughout.

`CC1(C)C(C#N)C1C1=C(N2CCOCC2)[C@]2(C)C(OC(=O)c3ccccc3)CC[C@@H]2C1` (some centres undefined): the TGI in the assay with HCT-116 colon, with M14 melanoma, in the assay with MCF7 breast, with NCI-H23 lung, with NCI-H522 lung and in the assay with OVCAR-3 ovarian was above 100 µM throughout. Besides, the TGI with SF-295 CNS, with SR leukemia, with SW-620 colon and with UACC-257 melanoma was above 100 µM in each case.

Regarding `NC(N)=NS(=O)(=O)c1ccc(NNc2c3ccccc3nc3c(C(=O)Nc4ccc(S(=O)(=O)Nc5ncccn5)cc4)cccc23)cc1`, the TGI in the assay with HCT-116 colon is 78.1 µM; with M14 melanoma, 89.7 µM; with MCF7 breast, above 100 µM; in the assay on NCI-H23 lung, above 100 µM; in the assay with NCI-H522 lung, 45.9 µM; in the assay on OVCAR-3 ovarian, above 100 µM. For the same compound, the TGI in the assay with SF-295 CNS, with SW-620 colon and with UACC-257 melanoma was above 100 µM in each case.

As for `COc1ccc(/C=C2\CCNC2=O)cc1`, the TGI in the assay on HCT-116 colon, in the assay on LOX IMVI melanoma, in the assay with MCF7 breast, in the assay with NCI-H23 lung, in the assay on NCI-H522 lung and with OVCAR-3 ovarian was above 100 µM throughout. Further, the TGI in the assay with SF-295 CNS, in the assay on SW-620 colon and with UACC-257 melanoma was above 100 µM each time.
